Data published in US9221795B2, “Phosphatidylinositol 3-kinase inhibitors” (Gilead Sciences, Inc., priority 2013, dated 2015).
pIC50: −log10 of the molar value.

Key:
[1] = target: PI3Kδ (Homo sapiens (Human), UniProt O00329); experiment: Enzymatic activity of PI3K isoforms, TR-FRET assay (PI3Kδ); type: biochemical; settings: 2× Km ATP, geometric mean if more than one value
Summary of the method: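 Recombinant heterodimeric PI3Kβ or PI3Kδ (25-50 pM) was run with 2 μM PIP2 and 2× Km ATP (75-500 μM) at pH 7.4, for 30 min at 25° C. PIP3 formation was detected by TR-FRET displacement of labeled PIP3 from Eu-GRP-1. IC50 values in nM come from four-parameter fits, as geometric means.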

[2] = target: PI3Kβ (Homo sapiens (Human), UniProt P42338); experiment: Enzymatic activity of PI3K isoforms, TR-FRET assay (PI3Kβ); type: biochemical; settings: 2× Km ATP, geometric mean if more than one value
Procedure: Enzymatic activity of the class I PI3K isoforms in the presence of the compounds of Table 1 and Compounds X, Y and Z was measured using a time-resolved fluorescence resonance energy transfer (TR-FRET) assay. The TR-FRET assay was used to monitor formation of the product 3,4,5-inositol triphosphate molecule (PIP3) as it competed with fluorescently labeled PIP3 for binding to the GRP-1 pleckstrin homology domain protein. An increase in […] product results in a decrease in TR-FRET signal as the labeled fluorophore is displaced from the GRP-1 protein binding site.
Class I PI3K isoforms were expressed and purified as heterodimeric recombinant proteins. All assay reagents and buffers for the TR-FRET assay were purchased from Millipore. PI3K isoforms were assayed under initial rate conditions in the presence of 25 mM Hepes (pH 7.4), and 2× Km ATP (75-500 μM), 2 μM PIP2, 5% glycerol, 5 mM MgCl2, 50 mM NaCl, 0.05% (v/v) Chaps, 1 mM dithiothreitol, 1% (v/v) DMSO at the following concentrations for each isoforms: PI3Kα, PI3Kβ, and PI3Kδ between 25 and 50 pM, and PI3Kγ at 2 nM. After an assay reaction time of 30 minutes at 25° C., reactions were terminated with a final concentration of 10 mM EDTA, 10 nM labeled-PIP3, and 35 nM Europium labeled GRP-1 detector protein before reading TR-FRET on an Envision plate reader (Ex: 340 nm; Em: 615/665 nm; […] delay and 500 μs read window).
Data were normalized based on positive ([…] wortmanin) and negative (DMSO) controls. α, β, δ, and γ IC50 values were calculated from the fit of the dose-response curves to a four-parameter equation. All IC50 values represent geometric mean values if more than one value was obtained. IC50 values were reported in units of nM.

[3] = Hepatocyte stability (parent drug disappearance in cryopreserved hepatocytes); type: in vitro ADME, human; settings: human, cryopreserved human hepatocytes, 2 μM substrate, 37° C.; Table 2a
Summary of the method: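 Test article at 2 μM incubated in duplicate with 1 million hepatocytes/mL at 37 °C, 5% CO2, humidified. Parent loss tracked by LC/MS at 0, 1, 2 and 4 h, giving half-life (t1/2) in hours.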

Sequence of PI3Kδ (O00329 whole entry, canonical isoform): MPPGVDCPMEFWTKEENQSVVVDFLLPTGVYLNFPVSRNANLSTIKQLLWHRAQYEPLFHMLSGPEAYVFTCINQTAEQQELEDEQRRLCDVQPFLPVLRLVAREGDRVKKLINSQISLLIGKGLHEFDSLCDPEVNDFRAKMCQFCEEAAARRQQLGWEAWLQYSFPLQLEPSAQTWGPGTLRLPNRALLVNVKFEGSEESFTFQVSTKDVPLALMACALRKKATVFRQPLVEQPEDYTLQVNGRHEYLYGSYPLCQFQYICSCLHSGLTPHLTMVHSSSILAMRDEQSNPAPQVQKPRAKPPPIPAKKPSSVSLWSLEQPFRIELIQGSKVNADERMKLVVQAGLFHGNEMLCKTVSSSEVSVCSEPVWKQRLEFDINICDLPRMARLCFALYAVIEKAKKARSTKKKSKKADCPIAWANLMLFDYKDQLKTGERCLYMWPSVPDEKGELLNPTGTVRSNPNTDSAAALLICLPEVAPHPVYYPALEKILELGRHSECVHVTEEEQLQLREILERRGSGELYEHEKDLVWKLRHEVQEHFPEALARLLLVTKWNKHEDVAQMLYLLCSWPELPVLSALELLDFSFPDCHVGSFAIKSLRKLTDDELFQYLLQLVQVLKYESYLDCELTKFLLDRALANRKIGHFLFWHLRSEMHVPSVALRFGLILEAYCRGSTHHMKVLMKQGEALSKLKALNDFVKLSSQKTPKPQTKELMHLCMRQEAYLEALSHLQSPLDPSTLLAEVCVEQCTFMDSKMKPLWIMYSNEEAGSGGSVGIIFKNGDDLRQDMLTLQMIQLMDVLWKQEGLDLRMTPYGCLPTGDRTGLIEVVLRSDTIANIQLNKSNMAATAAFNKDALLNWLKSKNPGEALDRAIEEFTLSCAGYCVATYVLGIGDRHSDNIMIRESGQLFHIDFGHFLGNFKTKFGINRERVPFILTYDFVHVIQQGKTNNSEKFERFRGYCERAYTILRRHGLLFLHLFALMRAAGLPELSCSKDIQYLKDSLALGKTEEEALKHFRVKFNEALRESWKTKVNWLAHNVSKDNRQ
Sequence of PI3Kδ (P27986 whole entry partner, canonical isoform): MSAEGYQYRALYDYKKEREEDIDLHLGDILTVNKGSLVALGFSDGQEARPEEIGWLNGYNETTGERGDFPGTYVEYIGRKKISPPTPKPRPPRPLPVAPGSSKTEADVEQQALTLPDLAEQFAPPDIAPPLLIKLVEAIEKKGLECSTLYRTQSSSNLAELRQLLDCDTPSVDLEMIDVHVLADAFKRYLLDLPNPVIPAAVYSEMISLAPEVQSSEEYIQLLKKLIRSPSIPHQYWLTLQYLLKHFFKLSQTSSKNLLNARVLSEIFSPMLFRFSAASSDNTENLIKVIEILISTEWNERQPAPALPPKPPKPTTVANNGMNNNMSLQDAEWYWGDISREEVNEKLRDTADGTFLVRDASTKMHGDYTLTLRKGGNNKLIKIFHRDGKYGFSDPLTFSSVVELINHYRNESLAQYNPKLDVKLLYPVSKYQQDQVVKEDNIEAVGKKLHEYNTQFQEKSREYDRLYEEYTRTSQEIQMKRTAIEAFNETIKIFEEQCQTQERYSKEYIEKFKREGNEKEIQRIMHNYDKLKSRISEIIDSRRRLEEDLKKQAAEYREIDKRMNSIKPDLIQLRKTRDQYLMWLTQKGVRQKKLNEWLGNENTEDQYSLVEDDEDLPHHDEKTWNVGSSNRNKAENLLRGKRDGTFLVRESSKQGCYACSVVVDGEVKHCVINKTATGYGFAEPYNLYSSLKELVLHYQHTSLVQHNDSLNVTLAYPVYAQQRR
Sequence of PI3Kβ (P42338 whole entry, the tested form may be a part, canonical isoform): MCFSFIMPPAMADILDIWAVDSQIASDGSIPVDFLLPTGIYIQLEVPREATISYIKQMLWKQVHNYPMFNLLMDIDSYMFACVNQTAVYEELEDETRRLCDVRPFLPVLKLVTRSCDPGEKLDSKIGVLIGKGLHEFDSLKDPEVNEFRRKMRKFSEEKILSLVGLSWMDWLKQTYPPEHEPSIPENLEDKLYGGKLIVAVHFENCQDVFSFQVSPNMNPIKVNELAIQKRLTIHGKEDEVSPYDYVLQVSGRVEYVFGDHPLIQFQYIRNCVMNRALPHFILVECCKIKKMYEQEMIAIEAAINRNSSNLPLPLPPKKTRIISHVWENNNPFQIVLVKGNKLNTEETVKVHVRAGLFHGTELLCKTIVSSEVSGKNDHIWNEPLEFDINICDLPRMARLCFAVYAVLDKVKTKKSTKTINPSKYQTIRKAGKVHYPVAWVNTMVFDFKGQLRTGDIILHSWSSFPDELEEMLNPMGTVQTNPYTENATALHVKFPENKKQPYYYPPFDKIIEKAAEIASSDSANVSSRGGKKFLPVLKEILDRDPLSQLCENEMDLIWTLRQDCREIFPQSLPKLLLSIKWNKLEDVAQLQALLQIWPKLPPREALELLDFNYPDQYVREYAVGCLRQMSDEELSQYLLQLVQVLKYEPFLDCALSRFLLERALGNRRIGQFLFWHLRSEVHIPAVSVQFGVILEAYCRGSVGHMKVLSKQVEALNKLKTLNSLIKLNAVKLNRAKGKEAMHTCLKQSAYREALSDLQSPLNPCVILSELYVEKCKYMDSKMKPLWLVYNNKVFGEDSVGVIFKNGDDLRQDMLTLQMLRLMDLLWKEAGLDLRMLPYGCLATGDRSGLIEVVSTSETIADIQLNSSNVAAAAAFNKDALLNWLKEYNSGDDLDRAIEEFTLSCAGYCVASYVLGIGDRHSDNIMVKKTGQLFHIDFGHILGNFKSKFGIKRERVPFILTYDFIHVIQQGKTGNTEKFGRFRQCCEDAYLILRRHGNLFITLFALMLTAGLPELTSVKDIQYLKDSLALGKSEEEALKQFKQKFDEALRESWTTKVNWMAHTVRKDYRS
Sequence of PI3Kβ (P27986 whole entry partner, the tested form may be a part, canonical isoform): as the sequence (P27986 whole entry partner, canonical isoform) above

Row | SMILES | pIC50 [1] | pIC50 [2] | half-life at 2 μM [3] [h]
1 | CC[C@H](Nc1nc(N)nc(N)c1C#N)c1nc2cccc(Cl)c2c(=O)n1-c1cnc(N)cc1C (atropisomer, axis not shown) [Compound 92, (S)-2,4-diamino-6-((1-(3-(6-amino-4-methylpyridin-3-yl)-5-chloro-4-oxo-3,4-dihydroquinazolin-2-yl)propyl)amino)pyrimidine-5-carbonitrile] | 9.10 | 9.00 | 4
2 | Cc1cc(N)ncc1-n1c([C@H](C)Nc2nc(N)nc(N)c2C#N)nc2cccc(Cl)c2c1=O (atropisomer, axis not shown) [Compound 94, (S)-2,4-diamino-6-((1-(3-(6-amino-4-methylpyridin-3-yl)-5-chloro-4-oxo-3,4-dihydroquinazolin-2-yl)ethyl)amino)pyrimidine-5-carbonitrile] | 9.30 | 9.00 | 10
3 | Cc1cc(N)ncc1-n1c([C@H](C)Nc2nc(N)nc(N)c2C#N)nc2c(Cl)ccc(Cl)c2c1=O (atropisomer, axis not shown) [Compound 96, (S)-2,4-diamino-6-((1-(3-(6-amino-4-methylpyridin-3-yl)-5,8-dichloro-4-oxo-3,4-dihydroquinazolin-2-yl)ethyl)amino)pyrimidine-5-carbonitrile] | 9.00 | 8.52 | 4
4 | C[C@H](Nc1nc(N)nc(N)c1C#N)c1nc2c(Cl)cc(F)cc2c(=O)n1-c1ccc(N)nc1 [Compound 82, (S)-2,4-diamino-6-((1-(3-(6-aminopyridin-3-yl)-8-chloro-6-fluoro-4-oxo-3,4-dihydroquinazolin-2-yl)ethyl)amino)pyrimidine-5-carbonitrile] | 8.30 | 8.30 | > 10
5 | C[C@H](Nc1nc(N)nc(N)c1C#N)c1nc2c(Cl)ccc(Cl)c2c(=O)n1-c1ccc(N)nc1 [Compound 84, (S)-2,4-diamino-6-((1-(3-(6-aminopyridin-3-yl)-5,8-dichloro-4-oxo-3,4-dihydroquinazolin-2-yl)ethyl)amino)pyrimidine-5-carbonitrile] | 9.30 | 9.00 | 10
6 | C[C@H](Nc1nc(N)nc(N)c1Cl)c1nc2cccc(Cl)c2c(=O)n1-c1ccc(N)nc1 [Compound 85, (S)-3-(6-aminopyridin-3-yl)-5-chloro-2-(1-((2,6-diamino-5-chloropyrimidin-4-yl)amino)ethyl)quinazolin-4(3H)-one] | 8.52 | 8.05 | > 10
7 | CC[C@H](Nc1nc(N)nc(N)c1C#N)c1nc2cccc(Cl)c2c(=O)n1-c1ccc(N)nc1 [Compound 87, (S)-2,4-diamino-6-((1-(3-(6-aminopyridin-3-yl)-5-chloro-4-oxo-3,4-dihydroquinazolin-2-yl)propyl)amino)pyrimidine-5-carbonitrile] | 9.22 | 9.10 | > 10
8 | C[C@H](Nc1nc(N)nc(N)c1Cl)c1nc2c(F)ccc(Cl)c2c(=O)n1-c1ccc(N)nc1 [Compound 88, (S)-3-(6-aminopyridin-3-yl)-5-chloro-2-(1-((2,6-diamino-5-chloropyrimidin-4-yl)amino)ethyl)-8-fluoroquinazolin-4(3H)-one] | 8.22 | 7.96 | > 10
9 | N#Cc1c(N)nc(N)nc1N[C@H](c1nc2cccc(Cl)c2c(=O)n1-c1ccc(N)nc1)C1CC1 [Compound 90, (S)-2,4-diamino-6-(((3-(6-aminopyridin-3-yl)-5-chloro-4-oxo-3,4-dihydroquinazolin-2-yl)(cyclopropyl)methyl)amino)pyrimidine-5-carbonitrile] | 9.22 | 8.70 | –
10 | C[C@H](Nc1nc(N)nc(N)c1Cl)c1nc2ccc(F)c(Cl)c2c(=O)n1-c1ccc(N)nc1 [Compound 100, (S)-3-(6-aminopyridin-3-yl)-5-chloro-2-(1-((2,6-diamino-5-chloropyrimidin-4-yl)amino)ethyl)-6-fluoroquinazolin-4(3H)-one] | 7.32 | 7.00 | –
11 | C[C@H](Nc1nc(N)nc(N)c1C#N)c1nc2ccc(F)c(Cl)c2c(=O)n1-c1ccc(N)nc1 [Compound 101, (S)-2,4-diamino-6-((1-(3-(6-aminopyridin-3-yl)-5-chloro-6-fluoro-4-oxo-3,4-dihydroquinazolin-2-yl)ethyl)amino)pyrimidine-5-carbonitrile] | 8.10 | 7.96 | –
12 | CCC[C@H](Nc1nc(N)nc(N)c1Cl)c1nc2cccc(Cl)c2c(=O)n1-c1ccc(N)nc1 [Compound 102, (S)-3-(6-aminopyridin-3-yl)-5-chloro-2-(1-((2,6-diamino-5-chloropyrimidin-4-yl)amino)butyl)quinazolin-4(3H)-one] | 7.82 | 7.21 | –
13 | CCC[C@H](Nc1nc(N)nc(N)c1C#N)c1nc2cccc(Cl)c2c(=O)n1-c1ccc(N)nc1 [Compound 103, (S)-2,4-diamino-6-((1-(3-(6-aminopyridin-3-yl)-5-chloro-4-oxo-3,4-dihydroquinazolin-2-yl)butyl)amino)pyrimidine-5-carbonitrile] | 9.00 | 8.52 | –
14 | CCC[C@H](Nc1nc(N)nc(N)c1Cl)c1nc2ccc(F)c(Cl)c2c(=O)n1-c1ccc(N)nc1 [Compound 104, (S)-3-(6-aminopyridin-3-yl)-5-chloro-2-(1-((2,6-diamino-5-chloropyrimidin-4-yl)amino)butyl)-6-fluoroquinazolin-4(3H)-one] | 7.03 | 6.28 | –
15 | CCC[C@H](Nc1nc(N)nc(N)c1C#N)c1nc2ccc(F)c(Cl)c2c(=O)n1-c1ccc(N)nc1 [Compound 105, (S)-2,4-diamino-6-((1-(3-(6-aminopyridin-3-yl)-5-chloro-6-fluoro-4-oxo-3,4-dihydroquinazolin-2-yl)butyl)amino)pyrimidine-5-carbonitrile] | 8.05 | 7.39 | –
16 | Nc1ccc(-n2c([C@@H](Nc3nc(N)nc(N)c3Cl)C3CC3)nc3c(F)ccc(Cl)c3c2=O)cn1 [Compound 106, (S)-3-(6-aminopyridin-3-yl)-5-chloro-2-(cyclopropyl((2,6-diamino-5-chloropyrimidin-4-yl)amino)methyl)-8-fluoroquinazolin-4(3H)-one] | 7.51 | 6.74 | –
17 | N#Cc1c(N)nc(N)nc1N[C@H](c1nc2c(F)ccc(Cl)c2c(=O)n1-c1ccc(N)nc1)C1CC1 [Compound 107, (S)-2,4-diamino-6-(((3-(6-aminopyridin-3-yl)-5-chloro-8-fluoro-4-oxo-3,4-dihydroquinazolin-2-yl)(cyclopropyl)methyl)amino)pyrimidine-5-carbonitrile] | 9.00 | 8.52 | –
18 | C[C@H](Nc1nc(N)nc(N)c1C#N)c1nc2cccc(Cl)c2c(=O)n1-c1cncc(N)c1 [Compound 108, (S)-2,4-diamino-6-((1-(3-(5-aminopyridin-3-yl)-5-chloro-4-oxo-3,4-dihydroquinazolin-2-yl)ethyl)amino)pyrimidine-5-carbonitrile] | 9.22 | 7.48 | –
19 | C[C@H](Nc1ncnc(N)c1C#N)c1nc2cccc(Cl)c2c(=O)n1-c1cncc(N)c1 [Compound 109, (S)-4-amino-6-((1-(3-(5-aminopyridin-3-yl)-5-chloro-4-oxo-3,4-dihydroquinazolin-2-yl)ethyl)amino)pyrimidine-5-carbonitrile] | 8.70 | 6.34 | –
